Experiment: in vitro permeation (diffusion) study across hairless mouse skin

Compound: C[C@]12CCC(=O)C=C1CC[C@@H]1[C@@H]2[C@@H](O)C[C@@]2(C)[C@H]1CC[C@]2(O)C(=O)CO [Hydrocortisone, hydrocortisone]
- Avg. Flux (formulation EtOH, saturated with the drug except for verapamil, average of the flux values at each sampling time within 24 hours): 0.64 µg/cm^2/h
- Avg. Flux (formulation EtOH:Mig 20:80, saturated with the drug except for verapamil, average within 24 hours): 10.24 µg/cm^2/h
- Avg. Flux (formulation Mig (Miglyol 840), saturated with the drug except for verapamil, average within 24 hours): 1.49 µg/cm^2/h

Source: patent EP0499662A1, “Compositions with enhanced penetration” (WARNER-LAMBERT COMPANY, priority 1991, dated 1992)
